One test addresses CRBN/DDB1 (Homo sapiens (Human), UniProt Q96SW2). Nature of the test: HTRF binding assay to CRBN/DDB1. The conditions noted are these: read-out: CRBN HTRF IC50. Here is the method: The binding potency was determined using HTRF assay technology (Perkin Elmer). Compounds were serially diluted in DMSO and 0.2 μL volume was transferred to white 384-well plate.
A general note: In TR-FRET formats the signal depends on donor and acceptor labels being close together.

The target of test [1] is T1, ER (Homo sapiens (Human), UniProt P03372). Nature of the test: In-cell western (ICW) ER degradation assay in MCF-7 cells. The conditions noted are these: MCF7, 16 hrs; for DC50: ER degradation; for Dmax: MCF7, maximal ER degradation; for MCF7 Dmax %: maximal ER degradation. In kind it is cell-based. The protocol:
(§1) ERa degradative activity of compounds can be assessed in MCF-7 and T47D Cells. MCF-7 and T47D cell are seeded and are subsequently treated with the compounds at certain concentrations (e.g., 0.02 to 300 nM). DMSO can be used as vehicle control. Cells are fixed and are blocked with Intercept (PBS) Blocking Buffer (e.g., Li-COR, Odyssey Blocking Buffer), and are stained with ER (e.g., 1:500, Cell signaling) primary antibody for overnight at cold room. Secondary Antibody (e.g., IRDye 800CW Goat anti-Rabbit IgG) and CellTag 700 Stain are added in Intercept (PBS) Blocking Buffer. Finally, cell plate is placed in incubator to dry. Image and signal are captured on Odyssey® DLx Imaging System.
(§2) Day 3: After 16 hrs of compounds treatment, cells were fixed by 4% PFA and permeabilized with elution buffer (0.1% Triton X-100 in 1% PBS Solution). Subsequently, cells were blocked with Intercept (PBS) Blocking Buffer (Li-COR, Odyssey Blocking Buffer), and were stained with ER (1:500, Cell signaling) primary antibody for overnight at cold room.
(§3) Day 4: Remove the buffer, add IRDye 800CW Goat anti-Rabbit IgG Secondary Antibody (1:2000) and CellTag 700 Stain (1:500) in Intercept (PBS) Blocking Buffer. Finally, cell plate is placed in incubator to dry. Image and signal were captured on Odyssey® DLx Imaging System.

In test [2] the target is T1, ER. Nature of the test: In-cell western (ICW) ER degradation assay in T47D cells. In kind it is cell-based. Conditions: 16 hrs; for DC50: ER degradation; for Dmax: maximal ER degradation. The protocol:
as §1, §2, §3

T1 sequence (P03372 whole entry): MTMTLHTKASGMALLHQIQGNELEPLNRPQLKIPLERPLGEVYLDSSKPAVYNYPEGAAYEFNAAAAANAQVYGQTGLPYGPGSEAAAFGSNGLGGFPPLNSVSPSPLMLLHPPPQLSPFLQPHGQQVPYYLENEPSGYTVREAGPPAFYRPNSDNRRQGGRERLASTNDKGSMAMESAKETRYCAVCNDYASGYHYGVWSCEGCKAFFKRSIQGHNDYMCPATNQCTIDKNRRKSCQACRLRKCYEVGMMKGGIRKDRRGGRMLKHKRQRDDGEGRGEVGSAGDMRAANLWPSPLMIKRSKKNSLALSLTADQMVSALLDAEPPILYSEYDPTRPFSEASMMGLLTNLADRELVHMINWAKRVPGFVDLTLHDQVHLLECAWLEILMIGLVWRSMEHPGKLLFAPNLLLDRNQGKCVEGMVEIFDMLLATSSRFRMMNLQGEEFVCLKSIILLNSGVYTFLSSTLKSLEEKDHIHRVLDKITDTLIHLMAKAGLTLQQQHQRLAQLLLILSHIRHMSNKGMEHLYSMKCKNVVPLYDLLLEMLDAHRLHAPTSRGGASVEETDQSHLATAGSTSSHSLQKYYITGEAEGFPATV
CRBN/DDB1, sequence (Q96SW2 whole entry): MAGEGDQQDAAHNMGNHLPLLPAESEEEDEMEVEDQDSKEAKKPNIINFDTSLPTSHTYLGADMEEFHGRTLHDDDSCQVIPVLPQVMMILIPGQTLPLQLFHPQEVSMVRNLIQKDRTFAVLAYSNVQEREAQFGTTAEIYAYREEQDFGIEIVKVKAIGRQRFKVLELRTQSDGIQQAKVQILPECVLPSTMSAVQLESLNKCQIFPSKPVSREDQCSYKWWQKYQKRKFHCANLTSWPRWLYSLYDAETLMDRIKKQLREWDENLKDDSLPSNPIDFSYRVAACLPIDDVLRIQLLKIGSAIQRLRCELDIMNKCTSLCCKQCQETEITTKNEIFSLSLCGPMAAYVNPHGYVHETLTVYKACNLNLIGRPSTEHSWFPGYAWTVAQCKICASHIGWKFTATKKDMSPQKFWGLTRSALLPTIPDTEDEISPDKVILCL
CRBN/DDB1, sequence (Q16531 whole entry partner): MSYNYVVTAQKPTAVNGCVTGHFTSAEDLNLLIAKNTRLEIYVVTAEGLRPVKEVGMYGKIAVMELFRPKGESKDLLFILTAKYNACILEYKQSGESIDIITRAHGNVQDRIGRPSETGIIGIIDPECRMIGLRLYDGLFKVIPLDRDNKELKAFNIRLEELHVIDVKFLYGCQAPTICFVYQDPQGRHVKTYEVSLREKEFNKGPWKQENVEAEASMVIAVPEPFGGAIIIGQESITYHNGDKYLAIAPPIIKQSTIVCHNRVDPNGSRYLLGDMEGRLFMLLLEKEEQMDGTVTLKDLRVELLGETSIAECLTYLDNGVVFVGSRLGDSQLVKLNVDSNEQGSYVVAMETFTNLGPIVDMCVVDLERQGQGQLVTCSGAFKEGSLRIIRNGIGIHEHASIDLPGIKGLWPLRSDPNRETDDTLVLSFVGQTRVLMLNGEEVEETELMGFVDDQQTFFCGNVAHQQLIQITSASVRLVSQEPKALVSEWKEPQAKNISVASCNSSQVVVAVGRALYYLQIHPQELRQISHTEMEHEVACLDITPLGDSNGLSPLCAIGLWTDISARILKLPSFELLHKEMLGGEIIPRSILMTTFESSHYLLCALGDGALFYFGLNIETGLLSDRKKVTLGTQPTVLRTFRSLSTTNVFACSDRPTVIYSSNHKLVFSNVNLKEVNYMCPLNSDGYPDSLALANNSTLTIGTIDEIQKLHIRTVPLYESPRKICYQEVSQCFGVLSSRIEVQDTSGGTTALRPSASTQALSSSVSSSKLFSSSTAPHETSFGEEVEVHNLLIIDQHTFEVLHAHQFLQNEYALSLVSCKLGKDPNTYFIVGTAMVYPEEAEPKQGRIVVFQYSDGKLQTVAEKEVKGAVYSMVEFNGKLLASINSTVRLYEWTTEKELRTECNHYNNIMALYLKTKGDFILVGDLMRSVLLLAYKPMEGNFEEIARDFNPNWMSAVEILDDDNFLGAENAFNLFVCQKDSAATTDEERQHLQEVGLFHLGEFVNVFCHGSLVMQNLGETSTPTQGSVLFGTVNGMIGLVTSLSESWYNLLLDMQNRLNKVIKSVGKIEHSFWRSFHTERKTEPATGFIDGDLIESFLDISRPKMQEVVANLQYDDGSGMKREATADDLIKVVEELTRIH

Usually IC50 stands for the point on the concentration scale where inhibition reaches its midpoint. Usually DC50 stands for the midpoint of the concentration-degradation curve. A lower DC50 goes with a more potent degrader. Broadly, the Dmax is the greatest extent of degradation seen. A lower Dmax goes with a partial loss of target. Consider `O=C1CCC(N2Cc3cc4c(cc3C2=O)CN(C(=O)CN2CCC3(CC2)CCN(c2ccc([C@@H]5c6ccc(O)cc6OC[C@@H]5c5ccccc5)cc2)CC3)C4)C(=O)N1` (single isomer, unassigned) [Compound A42], for which the IC50 at CRBN/DDB1 was in the range of 50 to 500 nM. For the same molecule, on ER [1], the DC50 is over 100 nM and the Dmax was under 25%.

As to `O=C1CCC(N2Cc3c(ccc4c3OC[C@@H]3CN(CC5CCN(c6ccc([C@@H]7c8ccc(O)cc8OC[C@@H]7c7ccccc7)cc6F)CC5)CCN43)C2=O)C(=O)N1` (single isomer, unassigned) [Compound A6], on CRBN/DDB1, the concentration for half-maximal inhibition (IC50) lay within 50 to 500 nM. At ER [1], this molecule gave a 50% degradation concentration (DC50) of 1 to 10 nM and a Dmax of 50 to 75%.

Turning to `O=C1CCC(N2C(=O)c3cc4c(cc3C2=O)CN(CC(=O)N2CC3(CCN(c5ccc([C@H]6c7ccc(O)cc7OC[C@H]6c6ccccc6)cc5)CC3)C2)C4)C(=O)N1` (single isomer, unassigned) [Compound A39], the 50% inhibitory concentration (IC50) at CRBN/DDB1 fell in the range of 50 to 500 nM. At ER [1], this molecule registered a 50% degradation concentration (DC50) of over 100 nM and a maximal degradation (Dmax) of under 25%.

Turning to `O=C1CCC(N2C(=O)c3cc4c(cc3C2=O)CN(CC(=O)N2CCC3(CC2)CN(c2ccc([C@H]5c6ccc(O)cc6OC[C@H]5c5ccccc5)cc2)C3)C4)C(=O)N1` (single isomer, unassigned) [Compound A38], the 50% inhibitory concentration (IC50) at CRBN/DDB1 was 50 to 500 nM. On ER [1], this molecule gave a half-maximal degradation concentration (DC50) of 10 to 100 nM and a Dmax of 25 to 50%.

For the molecule `O=C1CCC(N2Cc3c(ccc4c3OC[C@H]3CN(CC5CCN(c6ccc([C@@H]7c8ccc(O)cc8OC[C@@H]7c7ccccc7)cc6)CC5)CCN43)C2=O)C(=O)N1` (single isomer, unassigned) [Compound A8], the half-inhibitory concentration (IC50) on CRBN/DDB1 lay in the range of 50 to 500 nM. The molecule further displayed a half-maximal degradation concentration (DC50) at ER [1] of 1 to 10 nM.

As for `O=C1CCC(N2Cc3c(ccc4c3OC[C@H]3CN(CC5CCN(c6ncc([C@@H]7c8ccc(O)cc8OC[C@@H]7c7ccccc7)cn6)CC5)CCN43)C2=O)C(=O)N1` (single isomer, unassigned) [Compound A36], on CRBN/DDB1, the 50% inhibitory concentration (IC50) was 50 to 500 nM. On ER [1], the DC50 fell in the range of 10 to 100 nM and the Dmax is 25 to 50%.

As for `Cc1nn(C2CCC(=O)NC2=O)c2ccc(N3CCN(CC4CC5(CCN(c6ccc([C@H]7c8ccc(O)cc8OC[C@H]7c7ccccc7)cc6)CC5)C4)CC3)cc12` (single isomer, unassigned) [Compound A17], the IC50 on CRBN/DDB1 was 50 to 500 nM. On ER [1], this molecule yielded a DC50 of under 1 nM and a Dmax of 50 to 75%.

Turning to `O=C1CCN(c2ccc(N3CCN(CC4CCN(c5ccc([C@@H]6c7ccc(O)cc7OC[C@@H]6c6ccccc6)cc5)CC4)CC3)cc2)C(=O)N1` (single isomer, unassigned) [Compound A82], on ER [2], the DC50 lay within 1 to 10 nM and the Dmax is 25 to 50%. Moreover, at CRBN/DDB1, the IC50 was in the range of 500 to 5000 nM.

Turning to `O=C1CCC(NC(=O)c2ccc(C3CCN(CC4CCN(c5ccc([C@H]6c7ccc(O)cc7OC[C@H]6c6ccccc6)cc5F)CC4)CC3)cn2)C(=O)N1` (single isomer, unassigned) [Compound A101], on ER [2], the DC50 is under 1 nM and the maximal degradation (Dmax) is under 25%. Moreover, on CRBN/DDB1, the IC50 was over 5000 nM.

Consider `O=C1CCC(N2Cc3cc4c(cc3C2=O)CN(C(=O)CN2CC3(CCN(c5ccc([C@H]6c7ccc(O)cc7OC[C@H]6c6ccccc6)cc5)CC3)C2)C4)C(=O)N1` (single isomer, unassigned) [Compound A45], for which the half-inhibitory concentration (IC50) on CRBN/DDB1 lay in the range of 50 to 500 nM. Also, on ER [1], the half-maximal degradation concentration (DC50) is over 100 nM and the “MCF7 Dmax %” value is “D (“D”; <25%)”.

Regarding `COc1cccc([C@@H]2COc3cc(O)ccc3[C@@H]2c2ccc(N3CCC(CN4CCN5c6ccc7c(c6OC[C@H]5C4)CN(C4CCC(=O)NC4=O)C7=O)CC3)cc2)c1` (single isomer, unassigned) [Compound A34], the half-maximal inhibitory concentration (IC50) at CRBN/DDB1 is 50 to 500 nM. For the same molecule, on ER [1], the half-maximal degradation concentration (DC50) fell in the range of 1 to 10 nM and the maximal degradation (Dmax) lay within 25 to 50%.

In the case of `O=C1CCC(N2Cc3cc4c(cc3C2=O)CN(C(=O)CN2CCC3(CC2)CN(c2ccc([C@H]5c6ccc(O)cc6OC[C@H]5c5ccccc5)cc2)C3)C4)C(=O)N1` (stereo partly drawn) [Compound A48, 3-(6-(2-(2-(4-((3R,4S)-7-hydroxy-3-phenylchroman-4-yl)phenyl)-2,7-diazaspiro[3.5]nonan-7-yl)acetyl)-1-oxo-3,5,6,7-tetrahydropyrrolo[3,4-f]isoindol-2(1H)-yl)piperidine-2,6-dione], at CRBN/DDB1, the IC50 is 50 to 500 nM. On ER [1], this molecule showed a DC50 of over 100 nM and a Dmax of under 25%.

Regarding `O=C1CC[C@H](N2Cc3c(ccc4c3OC[C@H]3CN(CC5CC6(CCN(c7ccc([C@@H]8c9ccc(O)cc9OC[C@@H]8c8ccccc8)cc7)CC6)C5)CCN43)C2=O)C(=O)N1` (single isomer, unassigned) [Compound A37], the IC50 on CRBN/DDB1 was under 50 nM. At ER [1], the DC50 lay in the range of 1 to 10 nM and the “MCF7 Dmax %” value was “C (“C”: 25%-50%)”.

On to `O=C1CCC(N2Cc3c(ccc4c3OC[C@@H]3CN(CC5CCN(c6ccc([C@@H]7c8ccc(O)cc8OC[C@@H]7c7ccccc7)cc6)CC5)CCN43)C2=O)C(=O)N1` (single isomer, unassigned) [Compound A7], for which the IC50 at CRBN/DDB1 lay within 50 to 500 nM. On ER [1], this molecule came in with a DC50 of 1 to 10 nM and a Dmax of 50 to 75%.

As to `O=C1CCC(N2Cc3cc4c(cc3C2=O)OC[C@@H]2CN(CC3CC5(CCN(c6ccc([C@@H]7c8ccc(O)cc8OC[C@@H]7c7ccccc7)cc6)CC5)C3)CCN42)C(=O)N1` (stereo partly drawn) [Compound A28, 3-((S)-3-((7-(4-((3S,4R)-7-hydroxy-3-phenylchroman-4-yl)phenyl)-7-azaspiro[3.5]nonan-2-yl)methyl)-8-oxo-1,2,3,4,4a,5,8,10-octahydro-9H-pyrazino[1′,2′:4,5][1,4]oxazino[2,3-f]isoindol-9-yl)piperidine-2,6-dione], the IC50 on CRBN/DDB1 was over 5000 nM.

As to “2-(2,6-dioxopiperidin-3-yl)-6-(2-(9-(4-((3R,4S)-7-hydroxy-3-phenylchroman-4-yl)phenyl)-3,9-diazaspiro[5.5]undecan-3-yl)acetyl)-6,7-dihydropyrrolo[3,4-flisoindole-1,3(2H,5H)-dione [Compound A43]”, the IC50 at CRBN/DDB1 is over 5000 nM. On ER [1], the DC50 was over 100 nM and the “MCF7 Dmax %” value was “D (“D”; <25%)”.

Consider `O=C1CCC(N2Cc3cc4c(cc3C2=O)OC[C@@H]2CN(CC3CC5(CCN(c6ccc([C@H]7c8ccc(O)cc8OC[C@H]7c7ccccc7)cc6)CC5)C3)CCN42)C(=O)N1` (single isomer, unassigned) [Compound A27, 3-((S)-3-((7-(4-((3R,4S)-7-hydroxy-3-phenylchroman-4-yl)phenyl)-7-azaspiro[3.5]nonan-2-yl)methyl)-8-oxo-1,2,3,4,4a,5,8,10-octahydro-9H-pyrazino[1′,2′:4,5][1,4]oxazino[2,3-f]isoindol-9-yl)piperidine-2,6-dione], for which, on CRBN/DDB1, the IC50 lay in the range of 500 to 5000 nM. Besides, on ER [1], the DC50 is 1 to 10 nM.

Turning to `O=C1CCC(N2C(=O)c3cc4c(cc3C2=O)CN(C(=O)CN2CCC3(CC2)CN(c2ccc([C@@H]5c6ccc(O)cc6OC[C@@H]5c5ccccc5)cc2)C3)C4)C(=O)N1` (stereo partly drawn) [Compound A47, 2-(2,6-dioxopiperidin-3-yl)-6-(2-(2-(4-((3S,4R)-7-hydroxy-3-phenylchroman-4-yl)phenyl)-2,7-diazaspiro[3.5]nonan-7-yl)acetyl)-6,7-dihydropyrrolo[3,4-f]isoindole-1,3(2H,5H)-dione], the concentration for half-maximal inhibition (IC50) on CRBN/DDB1 fell in the range of 500 to 5000 nM. On ER [1], this molecule gave a DC50 of 10 to 100 nM and a maximal degradation (Dmax) of 25 to 50%.

On to `O=C1CCC(N2C(=O)c3cc4c(cc3C2=O)CN(C(=O)CN2CC3(CCN(c5ccc([C@@H]6c7ccc(O)cc7OC[C@@H]6c6ccccc6)cc5)CC3)C2)C4)C(=O)N1` (stereo partly drawn) [Compound A32, 2-(2,6-dioxopiperidin-3-yl)-6-(2-(7-(4-((3S,4R)-7-hydroxy-3-phenylchroman-4-yl)phenyl)-2,7-diazaspiro[3.5]nonan-2-yl)acetyl)-6,7-dihydropyrrolo[3,4-f]isoindole-1,3(2H,5H)-dione], for which, on CRBN/DDB1, the half-maximal inhibitory concentration (IC50) is 500 to 5000 nM.

On to `COc1nc(C(=O)NC2CCC(=O)NC2=O)ccc1N1CCN(CC2CCN(c3ccc([C@H]4c5ccc(O)cc5OC[C@H]4c4ccccc4)cc3F)CC2)CC1` (single isomer, unassigned) [Compound A102], for which the IC50 at CRBN/DDB1 fell in the range of 500 to 5000 nM. For the same molecule, at ER [1], the DC50 was under 1 nM and the Dmax fell in the range of 50 to 75%.

`O=C1CCC(N2Cc3c(ccc4c3OC[C@H]3CN(CC5CCN(c6ccc([C@@H]7c8ccc(O)cc8OC[C@@H]7c7ccccc7)cc6F)CC5)CCN43)C2=O)C(=O)N1` (single isomer, unassigned) [Compound A9]: the IC50 at CRBN/DDB1 lay in the range of 50 to 500 nM. This molecule showed a half-maximal degradation concentration (DC50) on ER [1] of 1 to 10 nM.

Regarding `Cc1nn(C2CCC(=O)NC2=O)c2ccc(N3CCN(CC4CCN(c5ccc([C@@H]6c7ccc(O)cc7OC[C@@H]6c6ccccc6)cc5F)CC4)CC3)cc12` (single isomer, unassigned) [Compound A14], on CRBN/DDB1, the IC50 was in the range of 500 to 5000 nM. On ER [1], the DC50 is 1 to 10 nM and the greatest degradation seen (Dmax) is 25 to 50%.

The record behind these values is patent US20260000676A1, “CHROMAN DERIVATIVES AS ESTROGEN RECEPTOR DEGRADERS” (THE REGENTS OF THE UNIVERSITY OF MICHIGAN, priority 2022, published 2026).
